In brackets after ≈: the same amount, converted by molar mass. Where two headings read alike, the source gives them in different places.
Tests used:
S. aureus ATCC 29213 = experiment: In vitro antibacterial evaluation, MIC by agar dilution, S. aureus ATCC 29213; format: cell-based; settings: Staphylococcus aureus, ATCC29213
Summary of the method: (§1)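 Growth inhibition on Mueller-Hinton agar plates defined the MIC, the lowest compound level stopping visible growth after 16-20 hours at 35°-36° C. Compound was incorporated at two-fold steps from 128 μg/mL to ≤0.25 μg/mL, each tested twice, with about 10^4 cfu spotted per isolate.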

[1] = test system: S. aureus 76 (Meth^R)(lac^+); experiment: In vitro antibacterial evaluation, MIC by agar dilution, S. aureus 76; format: cell-based; settings: Staphylococcus aureus, read-out: MIC
Summary of the method: as §1

[2] = test system: S. aureus Col8A (Meth^S)(lac^-); experiment: In vitro antibacterial evaluation, MIC by agar dilution, S. aureus Col8A; format: cell-based; settings: Staphylococcus aureus
Summary of the method: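 Agar dilution per NCCLS (1991): two-fold dilutions from 128 μg/mL down to ≤0.25 μg/mL in Mueller-Hinton agar, each level in duplicate. Spots of about 10^4 cfu of log-phase culture; 16-20 h at 35°-36° C. MIC in μg/ml is the lowest concentration inhibiting growth.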

S. haemolyticus (Meth^R) = experiment: In vitro antibacterial evaluation, MIC by agar dilution, S. haemolyticus; format: cell-based; settings: Staphylococcus haemolyticus, read-out: MIC
Summary of the method: as §1

E. faecium ATCC 35667 = experiment: In vitro antibacterial evaluation, MIC by agar dilution, E. faecium ATCC 35667; format: cell-based; settings: Enterococcus faecium, ATCC35667, read-out: MIC
Summary of the method: as §1

E. faecalis ATCC 29212 = experiment: In vitro antibacterial evaluation, MIC by agar dilution, E. faecalis ATCC 29212; format: cell-based; settings: Enterococcus faecalis, ATCC29212
Summary of the method: as §1

E. coli ATCC 25922 = experiment: In vitro antibacterial evaluation, MIC by agar dilution, E. coli ATCC 25922; format: cell-based; settings: Escherichia coli, ATCC25922, read-out: MIC
Summary of the method: as §1

P. aeruginosa ATCC 27853 = experiment: In vitro antibacterial evaluation, MIC by agar dilution, P. aeruginosa ATCC 27853; format: cell-based; settings: Pseudomonas aeruginosa, ATCC27853, read-out: MIC
Summary of the method: as §1

[3] = test system: methicillinsusceptible S. aureus strain ATCC 13709; experiment: In vivo antibacterial evaluation, murine model for lethal bacteremic peritonitis; parameters: species or system S. aureus in female Swiss-Webster mice; settings: Staphylococcus aureus, ATCC13709, sc, 72 h, two equal SC doses at challenge and 2 hours later, mice, probit, read-out: ED50
Method: Groups of 5 female Swiss-Webster mice (Simonsen, Gilroy, Calif.) each are challenged by the intraperitoneal (IP) route with ten-fold increments of a bacterial inoculum. This permits calculation of the mean lethal dose (LD50) and the LD100. For preliminary evaluation of a new antibiotic, mice are challenged IP with an LD100 titer of bacteria. In two equal doses administered at the time of bacterial challenge and 2 hours later, groups of 10 mice each are treated subcutaneously with two-fold increments of the test drug and an antibiotic of known efficacy in mice and humans (i.e., positive control). Mice are observed for 72 h. Those alive at 72 h are considered long term survivors. The total drug dose in mg/kg that protects 50% of mice in a group from death is termed the mean protective dose (PD50). PD50 s are similarly determined for several pathogens. The quantitative endpoints for the new drug are then compared with those obtained with reference antibiotics.
Six ten-fold dilutions of inoculum suspended in 0.5 mL of sterilized 7% hog gastric mucin (Sigma) are injected IP in groups of 5 mice each. A control group of 5 mice receive mucin alone. Mice are observed for 72 h. Those alive at 72 h are considered long term survivors. The mean lethal dose (LD50) and 100% lethal dose (LD100) are determined by the probit test.
For antibiotic efficacy studies, mice are challenged IP with bacterial titers that will afford an LD100 for the test strain. In two equal doses administered at the time of bacterial challenge and 2 hours later, groups of 10 mice each are treated by the subcutaneous route (SC) with twofold increments of the test antibiotic; another group is treated similarly with a reference antibiotic of known efficacy in animals and man. Drug doses can range from 0.01 to 512 mg/kg. If the drug is poorly soluble, Tween 20 or propylene glycol will be employed to solubilize the drug. Animals are observed for 72 h. The 50% protective dose (PD50) is calculated in mg/kg by the probit method. The PD50 is the same as the 50% effective dose (ED50) and the 50% curative dose (CD50). Samples of blood from the hearts of all animals that die and from half the mice that survive are cultured on brain-heart infusion agar. Animals that received a protective dosage of the test drug will be alive at 72 h, although they may appear moderately ill to very ill during the observation period. […] Most of these mice will die within 6 to 48 h. Those alive at 72 h will be considered long term survivors.
(§2) data reported for challenge with methicillinsusceptible S. aureus strain

[4] = test system: methicillinsusceptible S. aureus strain ATCC 13709; experiment: Challenge strain MIC; format: cell-based; settings: Staphylococcus aureus
Method: The compounds of the invention were evaluated against several β-lactamresistant bacteria strains by determining the minimum inhibitory concentration (MIC, μg/ml) of each compound with respect to each strain. The MIC, the lowest concentration of antibiotic which inhibits growth of the test organism, was determined by the agar dilution method.
To determine the MIC for bacterial isolates, the test compound was incorporated in a series of two-fold dilutions into liquified Mueller-Hinton agar. Upon solidification, a number of different bacterial strains were spot inoculated with a replicating device onto the agar surface. […] The procedures used in these studies have been standardized by the National Committee for Clinical Laboratory Standards (NCCLS), as per the NCCLS publication entitled METHODS FOR DILUTION ANTIMICROBIAL SUSCEPTIBILITY TESTS (1991), which is incorporated herein by reference.
Aliquots of antimicrobial agents were prepared in phosphate buffered saline (PBS) at pH 7.2. Tween 20 or DMSO was used as a solubilizing vehicle as needed. Standard methods of vortexing, sonicating and gentle heat were used to facilitate solubilizing the test agent. Typically, the concentration of the stock solution was 10× that of the highest drug concentration tested. A 1.28 mg/mL stock solution was used with a subsequent highest working concentration of 128 μg/mL. Serial two-fold dilutions were done through ≤0.25 μg/mL. Each drug level was tested in duplicate. Two-fold drug dilutions were done in sterile 50 mL tubes with a final drug volume of 5 mL. Upon the addition of 45 mL of molten agar, a 10-fold dilution resulted. Two, 25 mL. plates were then poured into 15×150 mm square Petri plates with grids and allowed to harden.
A control plate with a reference drug, either cefotaxime, vancomycin or imipenem, was used as the positive growth control. Stock concentrations of reference antibiotics were prepared and frozen at -80° C. Upon preparation, the control plates were sealed and stored in the refrigerator for up to 1 week prior to use; however, imipenem control plates had to be prepared just prior to use. All test plates were used within 24 hours of preparation.
Satisfactory results were obtained where the inoculum contained about 10^4 colony forming units (cfu) ±0.5 logs. Starting with pure cultures of the test isolates on agar plates, a few isolated colonies were transferred to a tube of nutrient broth and allowed to grow 4-6 hours at 35°-36° C. to reach log-phase growth. Dropwise addition of the broth culture to PBS was done to match a 0.5 McFarland turbidity standard equal to 10^8 cfu/mL. This was further diluted ten-fold in PBS to reach a working inoculum concentration of 10^7 cfu/mL. When 1 μL of the working inoculum was applied to the agar surface a concentration of about 10^4 cfu per spot was obtained.
Disposable sterile 1 μL loops were used to inoculate test plates, with each isolate in a designated grid on the agar plate. An alternate method of inoculation involved the use of a replica plater, a device with 48 steel pins allowing the simultaneous inoculation of multiple isolates. After the spots had dried, the plates were incubated at 35°-36° C. for 16-20 hours. Endpoints were assessed as the minimum inhibitory concentration (MIC) of antimicrobial agent.
as §2

[5] = E. faecalis ATCC 29212, read-out: MIC
[6] = ATCC13709, S. aureus ATCC 13709, read-out: Challenge str MIC
[7] = S. aureus ATCC 29213, read-out: MIC

Compound `O=C(CSc1ccncc1)N[C@@H]1C(=O)N2C(C(=O)O)=C(Sc3ccnn3-c3ccccc3)CS[C@H]12` [Cmpd 110, (7R)-7-[(4-pyridylthioacetyl)amino]-3-(1-N-phenylpyrazol-5-ylthio)-3-cephem-4-carboxylic acid] has an MIC (S. aureus ATCC 29213) of 0.25 µg/mL (≈ 0.476 µM), an MIC [1] of 8 µg/mL (≈ 15.2 µM) and an MIC [2] of 0.25 µg/mL (≈ 0.476 µM). For the same compound, the MIC (S. haemolyticus (Meth^R)) was over 16 µg/mL, the MIC (E. faecium ATCC 35667) was 2 µg/mL (≈ 3.8 µM) and the MIC (E. faecalis ATCC 29212; [5]) was 2 µg/mL (≈ 3.8 µM). For the same compound, the MIC (E. coli ATCC 25922) was over 32 µg/mL, the MIC (P. aeruginosa ATCC 27853) was over 32 µg/mL and the ED50 [3] was 3.45 mg/kg. The MIC [4, 6] was 0.25 µg/mL (≈ 0.476 µM).

Compound `CSCC(=O)N[C@@H]1C(=O)N2C(C(=O)O)=C(Sc3ccnn3-c3ccccc3)CS[C@H]12` [Cmpd 106, (7R)-7-[(methylthioacetyl)amino]-3-(1-N-phenylpyrazol-5-ylthio)-3-cephem-4-carboxylic acid] has an MIC (S. aureus ATCC 29213; [7]) of 0.25 µg/mL (≈ 0.54 µM), an MIC [1] of 8 µg/mL (≈ 17.3 µM) and an MIC [2] of 0.125 µg/mL (≈ 0.27 µM). For the same compound, the MIC (S. haemolyticus (Meth^R)) was 32 µg/mL (≈ 69.2 µM), the MIC (E. faecium ATCC 35667) was 4 µg/mL (≈ 8.65 µM) and the MIC (E. faecalis ATCC 29212; [5]) was 4 µg/mL (≈ 8.65 µM). The MIC (E. coli ATCC 25922) was over 32 µg/mL, the MIC (P. aeruginosa ATCC 27853) was over 32 µg/mL and the ED50 [3] was 0.72 mg/kg. The MIC ([4]; ATCC13709, read-out: Challenge str MIC) was 0.125 µg/mL (≈ 0.27 µM).

Work on `N#CCSCC(=O)N[C@@H]1C(=O)N2C(C(=O)O)=C(Sc3ccnn3-c3ccccc3)CS[C@H]12` [Cmpd 122, (7R)-7-[(cyanomethylthioacetyl)amino]-3-(1-N-phenylpyrazol-5-ylthio)-3-cephem-4-carboxylic acid] yielded an MIC (S. aureus ATCC 29213) of 0.25 µg/mL (≈ 0.513 µM), an MIC [1] of 8 µg/mL (≈ 16.4 µM) and an MIC [2] of 0.25 µg/mL (≈ 0.513 µM). It also gave an MIC (S. haemolyticus (Meth^R)) of 16 µg/mL (≈ 32.8 µM), an MIC (E. faecium ATCC 35667) of 4 µg/mL (≈ 8.2 µM) and an MIC (E. faecalis ATCC 29212; [5]) of 4 µg/mL (≈ 8.2 µM). It also gave an MIC (E. coli ATCC 25922) of over 32 µg/mL, an MIC (P. aeruginosa ATCC 27853) of over 32 µg/mL and an ED50 [3] of 1.13 mg/kg. For the same compound, the MIC [4, 6] was 0.125 µg/mL (≈ 0.256 µM).

`O=C(O)C1=C(Sc2ccnn2-c2ccccc2)CS[C@@H]2[C@H](NC(=O)/C(=N\O)c3ccccc3)C(=O)N12` [Cmpd 130, (7R)-7-[(Z)-2-(Phenyl)-2-(hydroxyimino)acetamido]-3-(1-N-(phenyl)pyrazol-5-ylthio)-3-cephem-4-carboxylic acid] was tested, and the MIC (S. aureus ATCC 29213; [7]) was 0.125 µg/mL (≈ 0.24 µM), the MIC [1] was 4 µg/mL (≈ 7.67 µM) and the MIC [2] was 0.25 µg/mL (≈ 0.479 µM). For the same compound, the MIC (S. haemolyticus (Meth^R)) was 4 µg/mL (≈ 7.67 µM), the MIC (E. faecium ATCC 35667) was 0.5 µg/mL (≈ 0.959 µM) and the MIC (E. faecalis ATCC 29212) was 0.25 µg/mL (≈ 0.479 µM). For the same compound, the MIC (E. coli ATCC 25922) was over 32 µg/mL, the MIC (P. aeruginosa ATCC 27853) was over 32 µg/mL and the ED50 [3] was over 10 mg/kg. For the same compound, the MIC [4, 6] was 0.125 µg/mL (≈ 0.24 µM).

Source: US5607926A, “Cephalosporin antibiotics” (Microcide Pharmaceuticals, Inc., priority 1995, dated 1997)
